From article PMC8456950, “Structure‐Guided Design of G‐Protein‐Coupled Receptor Polypharmacology” (Angewandte Chemie (International Ed. in English), 2021)
Entries after “also recorded” stand apart in the source; their conditions may differ.

Test system: unilaterally 6-OHDA lesioned rats
Assay: Rotation test in unilaterally 6-OHDA lesioned rats (model of Parkinsonism)
Type: in vivo
Description: Evaluation of compound 30 in rodent model of Parkinsonism. Male Sprague Dawley rats (150-200 g) were housed in air-conditioned rooms (12h dark/light cycle) at 20°C and a humidity of 53%. Experiments were performed in agreement with the European Communities Council Directive of 24 November 1986 (86/609/EEC) on the ethical use of animals and were approved by the local ethical committee (Stockholm North Ethical Committee, N105/16). Rats were anesthetized with ketamine (100 mg/kg, IP; Intervet)/xylazine (5 mg/kg, IP; Bayer, Kiel, Germany), pretreated with desipramine (25 mg/kg, IP; Sigma, St Louis, MO, USA)/pargyline (5 mg/kg, IP; Sigma), placed in a stereotaxi c instrument and injected with 6-OHDA (2.5 µl of a 5mg/ml solution; Sigma) into the median forebrain bundle (MFB) of the right hemisphere (AP -2.8 mm, ML -2.0 mm and V -9.0 mm). Two weeks after the unilateral 6-OHDA lesion, rats were injected with apomorphine (1 mg/kg, IP; Sigma) and their contralateral rotations were measured to determine the degree of nigrostriatal denervation. Four weeks after surgery, rats that were divided into two group according to the number of apomorphine-induced rotations. The rats were treated either with DMSO(17%)/saline (n=6) or compound 30 (n=7, 24 mg/kg, IP) dissolved in DMSO(17%)/saline. The number of rotations was calculated automatically with Noldus EthoVision XT11. 5 Software for 30 min following the drug administration. The two […]
groups were then compared by using a Mann-Whitney test. A second set of independent experiments using a new set of rats were carried out using the same protocol to assess the involvement of the D2R in the observed effect. In this case, rats were divided into four groups according to the number of apomorphine-induced rotations. The rats were treated with either DMSO(17%)/saline (n=6), raclopride (n=7, 2mg/kg, IP) dissolved in DMSO(17%)/saline, compound 30 (n=7, 24 mg/kg, IP) dissolved in DMSO(17%)/saline or the combination of raclopride (30 min pretreatment) and compound 30 (n=7). The rotation test was then performed for 30 min. […]

For `CCCN(CCCCC(=O)Nc1nc2c(OC)ccc(OC)c2s1)C1Cc2ccccc2C1` [Compound 30], the “contralateral rotations (net rotations, 30 min) versus control group” value (24 mg kg^−1 IP, 6-OHDA lesioned rats, p<0.01 first set, p<0.05 independent second set) was “significantly higher number of contralateral rotations; also recorded: significant increase of contralateral rotations” and the “effect on contralateral rotations in combination with D2 antagonist raclopride” value (30 at 24 mg kg^−1 IP with raclopride 2 mg kg^−1 IP (30 min pretreatment)) was “reversed”.
